“Also recorded” adds a separate entry of the source.
Experiments:
[1] = tested on: polyamine and acetyl polyamine levels in LNCaP human prostate cells; experiment: HPLC quantitation of polyamine and acetyl polyamine levels; type: cell-based
Description: Each data point is an average of 2 determinations of cell pellets collected from qty. 3 independent experiments.
It can be stated that FIGS. 5A-5E support the conclusion that R1881 treatment increases SSAT mRNA levels while enhancing SSAT enzyme activity.

[2] = tested on: SSAT gene expression in LNCaP cells; experiment: DNA microarray analysis of gene expression (Affymetrix Genechip Arrays); type: cell-based, human; settings: 1 nM R1881, 96 hours
Protocol: As shown schematically in FIG. 1, unusually high polyamine levels in prostate cells and high induction of SSAT may induce large increases in ROS levels. A DNA microarray analysis of gene expression in control untreated LNCaP cells and cells treated with 1 nM androgen analog R1881 for 96 hours was performed twice using Affymetrix Genechip Arrays. In both experiments, SSAT was clearly identified as being highly over-expressed in R1881 treated with LNCaP cells as compared to untreated control cells. Among the list of genes that are over-expressed (more than 10-fold over the control), SSAT was the only enzyme connected to the ROS-generating pathway.

[3] = tested on: SSAT mRNA in LNCaP human prostate cancer cells; experiment: qRT-PCR quantitation of SSAT mRNA normalized to GAPDH mRNA; type: cell-based; settings: 1 nM R1881, 96 hours
Description: Each data point is an average of readings from qty. six identically-treated wells repeated twice in triplicates. […] It can be thus postulated that androgen-induced SSAT gene expression is a significant contributor to cellular ROS production in androgen-dependent prostate cancer cells.

[4] = tested on: LNCaP human prostate cancer cells; experiment: DCFH (DCF) oxidation assay of ROS, DCF/DNA fluorescence; type: cell-based; settings: for DCF/DNA Fluor, units: DMEM + (F1/C4)
Protocol: It is well-accepted in the art that androgen, at physiological concentrations, induces ROS production in androgen dependent prostate cancer cells. A 2′,7′-dichlorodihydrofluorescein diacetate (DCF) oxidation assay was used to measure the ratio of oxidized DCF:DNA fluorescence which is an accepted measure of ROS levels in prostate cell lines. […]
Results were determined using DCF oxidation assay methods. Each data point is an average of readings from qty. 6 wells repeated twice in triplicates.
(§1) DCFH oxidation assay. The 96-well cultures or freshly re-sected animal or human tissues were assayed for estimation of ROS levels in intact cells using the dye 2′,7′ -dichlorofluorescein diacetate (DCF) (Molecular Probes, Inc., Eugene, Oreg.). Re-sected tissues or cell cultures were washed with 200 μL Kreb's Ringer buffer (116 mM NaCl, 4.2 mM KCl, 2.5 mM CaCl2, 1.6 mM NaH2PO4, 1.2 mM MgSO4, 22 mM NaHCO3, and 11 mM D-glucose), pre-warmed to 37° C., incubated at 37° C. in 100 μL Kreb's Ringer buffer containing 10 μg/mL (final concentration) DCF dye for 45 minutes. Each 96-well culture plate was scanned on a CytoFluor 2350™ plate scanner (Applied Biosystems, Foster City, Calif.) using the 485 excitation/530 emission frequencies. Each tissue sample was scanned.
DNA Assay. Fifty μL of Kreb's Ringer Buffer (40 ug/mL) containing Hoechst 33342 dye, which contains
(§2) was added to each well 45 minutes and to all tissues 60 minutes before fluorescence measurements. The DNA fluorescence was determined 360 nm excitation/460 nm emission. All DCF or Hydroethidine fluorescence were normalized to DNA fluorescence for proper quantitation of oxidative stress.

[5] = tested on: DU-145 human prostate cancer cells; experiment: as above; type: cell-based; settings: for DCF/DNA Fluor, units: DU-145, DMEM + F(5)
Protocol: It is well-accepted in the art that androgen, at physiological concentrations, induces ROS production in androgen dependent prostate cancer cells. A 2′,7′-dichlorodihydrofluorescein diacetate (DCF) oxidation assay was used to measure the ratio of oxidized DCF:DNA fluorescence which is an accepted measure of ROS levels in prostate cell lines.
The LNCaP human prostate cancer cells were grown in an androgen-depleted medium of 1% FBS and 4% charcoal stripped FBS, (F1/C4) and in the presence or absence of 1 nM synthetic androgen analog R1881 with or without 15 μM antioxidant α-tocopherol (vitamin E) pretreatment.
BE-3-3-3 is known to induce SSAT enzyme activity in various cell lines including androgen-dependent LNCaP and androgen-independent DU-145 prostate cancel cells. DU-145 cells were treated with increasing concentrations of BE-3-3-3 for 72 hours. Oxidative stress was measured using 96-well plate based 2′7′-dichlorfluorescein diacetate dye (“DCF”) oxidation assay. Each data point is an average of qty. 6 identically-treated wells repeated twice in triplicates.
as §1, with “Each tissue sample was scanned.” left out
as §2

[6] = tested on: prostate tissue in TRAMPxFVB animals; experiment: Hydroethidine (HEt) dye oxidation in prostate sections in vivo; set-up: species or system mouse; settings: 20-week-old TRAMPxFVB, 6 administrations of 25 mg/kgBW, sacrificed 2 weeks after treatment, HEt 8 mg/kgBW i.v.
Protocol: A method using hydroethidine (HEt) dye oxidation was standardized to observe oxidative stress in prostate tumors in vivo. HEt oxidizes to 2-hydroxy ethidium specifically by a ROS(41). The 2-hydroxy ethidium fluoresces at 488 nm excitation and 595 nm emission frequencies. The HEt dye may be safely injected into animals at least 1 hour before sacrifice. Twenty-week old TRAMPxFVB animals were injected with HEt (8 mg/kgBW) 1 hour before sacrifice. After sacrifice, prostate glands were collected, formalin-fixed and paraffin-embedded. Paraffin blocks were microtome-sectioned, and the tissues were deparaffinized, observed using fluorescence microscopy, and analyzed using digital image analysis.
The picture shown in FIGS. 7A-7D were taken at 20× magnification using an Olympus BH-2 fluorescence microscope using 480 nm excitation/600 nm emission filters coupled with a Sony DSC-V3 digital camera set at F2.8 and 30 sec. exposure.
Hydroethidine Assay. Hydroethidine dye was dissolved in DMSO (100 mg/ml) and diluted in isotonic saline to 1 mg/ml before injection. […] Microtome sections of the blocks were mounted on slides and were quantitated for fluorescence at 488 nm excitation/595 nm emission frequencies.

Androgen Receptor = experiment: Western blot analysis of Androgen Receptor; type: in vivo, mouse; settings: TRAMPxFVB mice
[7] = tested on: TRAMP male mice (spontaneous prostate tumors); experiment: Overall survival of TRAMP mice; type: in vivo, mouse
[8] = tested on: TRAMPxFVB male mice (spontaneous prostate tumors); experiment: Overall survival of TRAMPxFVB mice; type: in vivo, mouse
Description: In the study using the TRAMPxFVB mice, qty. 8 animal were in the MDL 72,527-treated group, and qty. 8 mice were in the vehicle-treated group. Since these animals start prostate tumor development at an earlier age than do the TRAMP animals, treatment began at 8 weeks of age. Treatment included qty. […] Over 60% of the MDL 72,527-treated TRAMPxFVB mice survived at least 8 weeks after the end of the therapy, and at least 6 weeks after the death of the entire group of control vehicle-treated animals.

[9] = tested on: TRAMPxFVB mice (palpable prostate tumor); experiment: Time to palpable tumor development in TRAMPxFVB mice; type: in vivo, mouse
Description: Signs of palpable prostate tumor development were monitored twice every week.

[10] = Tolerability and body weight in TRAMPxFVB mice; settings: 25 mg/kgBW
[11] = 1 μM BE-3-3-3 + 25 μM MDL 72,527
[12] = LNCaP, 24 h pretreatment 25 μM MDL 72,527 then 1 nM R1881 96 h

For C[C@]1(O)CC[C@H]2[C@@H]3CCC4=CC(=O)CCC4=C3C=C[C@@]21C [R1881, reference compound], the N-acetyl spermidine level ([1]; LNCaP, 1 nM R1881, 96 hours) was “increases”, the N-acetylspermine level ([1]; LNCaP, 1 nM R1881, 96 hours) was “increases” and the putrescine level ([1]; LNCaP, 1 nM R1881, 96 hours) was “significantly increases”. The spermidine level ([1]; LNCaP, 1 nM R1881, 96 hours) was “significantly increases”, the spermine level ([1]; LNCaP, 1 nM R1881, 96 hours) was “decreases” and the “SSAT over-expression over the control (DNA microarray)” value [2] was “more than 10 fold”. For the same compound, the “increase in SSAT gene expression vs untreated control cells (qRT-PCR)” value [3] was 50 fold, the oxidative stress ([4]; 0.05 nM R1881) was “no increase in oxidative stress” and the “DCF/DNA Fluor, units” value ([4]; 1 nM R1881) was 3.34 units.
With Cc1c(C)c2c(c(C)c1O)CC[C@@](C)(CCC[C@H](C)CCC[C@H](C)CCCC(C)C)O2 [Vitamin E, α-tocopherol] the “DCF/DNA Fluor, units” value ([4]; 1 nM R1881 + 15 μM Vitamin E) was 1.80 units.
With CCNCCCNCCCNCCCNCC [BE-3-3-3, bisethylnorspermine] the “DCF/DNA Fluor, units” value ([5]; 1 μM BE-3-3-3) was 0.67 units, the “cellular ROS levels (DCF/DNA fluorescence, percent of control)” value ([5]; DU-145, increasing BE-3-3-3 concentration, 72 hours, non-cytotoxic dose <1 μM) was “increases oxidative stress; also recorded: increases cellular ROS levels” and the “DCF/DNA Fluor, units” value ([4]; 1 μM BE-3-3-3) was 3.19 units.
In the case of C=C=CCNCCCCNCC=C=C [MDL 72,527], the “HEt dye oxidation (fluorescence) in prostate section, oxidative stress in vivo” value [6] is reported as “less HEt fluorescence; also recorded: no dye oxidation was detected”, the “Androgen Receptor level (Western blot)” value (Androgen Receptor) is reported as “not due to down-regulation of the Androgen Receptor” and the “DCF/DNA Fluor, units” value [5, 11] is reported as 0.26 units. The N-acetyl-spermidine level [1, 12] was “significant increase”, the N-acetylspermine level [1, 12] was “significant increase” and the “R1881-induced increase in putrescine level” value [1, 12] was “almost completely blocked the induced increase”. For the same compound, the “R1881-induced increase in spermidine level” value [1, 12] was “almost completely blocked the induced increase”, the spermine level [1, 12] was “without appreciably changing” and the “APAO activity in cells” value ([1]; LNCaP, MDL 72,527 at 25 μM) was “efficiently and effectively blocked APAO activity”. The N-Ac-spermine level ([1]; LNCaP, treated with the compound (25 μM, 120 hours), without R1881) was “insignificantly small increase”, the “effect on SSAT gene expression and/or enzymatic activity” value ([1]; androgen-treated LNCaP cells, 25 μM MDL 72,527) was “no material effect” and the “survival benefit vs vehicle-treated mice” value ([7]; 25 mg/kgBW i.p. bi-weekly) was “Over 60%”. For the same compound, the “overall survival (OS) vs vehicle” value ([7]; 25 mg/kgBW i.p. bi-weekly x3, from 22 weeks) was “significant improvement; also recorded: improvement in overall survival; also recorded: improved overall survival”, the “survival benefit vs vehicle-treated mice” value ([8]; 25 mg/kgBW i.p. bi-weekly) was “Over 60%” and the “treated mice surviving at least 8 weeks after the end of the therapy” value ([8]; 25 mg/kgBW i.p. bi-weekly x6) was “Over 60%”. For the same compound, the “overall survival (OS) vs vehicle” value ([8]; 25 mg/kgBW i.p. bi-weekly x6, from 8 weeks of age) was “significant increase in OS; also recorded: improvement in overall survival; also recorded: increased overall survival”, the “time to tumor development” value ([9]; TRAMPxFVB mice, 25 mg/kgBW every two weeks) was “delays time to tumor development” and the “treated mice with no signs of palpable tumor” value ([9]; TRAMPxFVB, 11 weeks after treatment discontinued (29 week old animals), 25 mg/kgBW once bi-weekly) was “over 40%”. For the same compound, the “androgen (R1881) induced production of ROS” value ([4]; 25 μM MDL 72,527 pretreatment, increasing R1881 concentration 96 hours) was “effectively blocks androgen induced production of ROS”, the “DCF/DNA Fluor, units” value [4, 11] was 1.87 units and the “tolerability (overt signs of toxicity, abnormal behavior, body weight loss)” value [10] was “well-tolerated”.
